Patent US20060029555A1, “Compositions and methods for prevention of photoaging” (priority 2002, published 2006)

Tested on: human elastin promoter
Test: Transgenic mouse model of photoaging: human elastin promoter/CAT reporter activity after solar simulating radiation
Assay type: in vivo, transgenic mice
Details: topical application to backs about fifteen minutes before 20 MEDs of SSR, three consecutive days; CAT activity 24 hours after third phototreatment, compared with vehicle alone
Procedure: These mice express human elastin promoter activity in a tissue-specific and developmentally regulated manner. […] In addition, quantitative data can be obtained after only a single exposure to ultraviolet radiation. […] The transgenic mouse is then exposed to solar radiation and human elastin promoter activity in the mouse is determined.
Approximately fifteen minutes after topical application, the mice are exposed to 20 human minimal erythema doses (MEDs) of solar simulating radiation (SSR). […] This procedure is repeated over three consecutive days.
Mice are then sacrificed and skin harvested for determination of CAT activity 24 hours after the third phototreatment. […]
To measure the expression of the human elastin promoter/CAT reporter gene construct in the skin of transgenic mice and in fibroblast cultures established from these animals, CAT activity is determined. […] The homogenates are centrifuged at 10,000 ×g for 15 minutes at 4° C. and the protein concentration in the supernatant determined by a commercial protein assay kit (Bio-Rad Laboratories, Richmond, Calif.). […] The acetylated and non-acetylated forms of radioactive chloramphenicol are separated by thin-layer chromatography and CAT activity is determined by the radioactivity in the acetylated forms as a percent of the total radioactivity in each sample.

Cn1c(=O)c2c(ncn2C)n(C)c1=O [caffeine]
protection against photoaging and other sun-damage (human elastin promoter activity, CAT activity in skin): provides protection against photoaging and other sun-damage such as sunburn
